{
  "source": "PubChem BioAssay AID2127",
  "about": "(Sanford-Burnham Center for Chemical Genomics, 2009)",
  "biological_target": "E3 ubiquitin-protein ligase SIAH1 (Homo sapiens) (UniProt Q8IUQ4)",
  "assay": "displacement of labeled plectin from Siah-1 – biochemical, fluorescence polarization, fluorescein-plectin, artefact control for Siah-1 antagonist project, dose response (AID 2127)",
  "conditions": "Siah-1/fluorescein-plectin binding",
  "note": "Activity calls are given as the source filed them.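 How the source made its calls: active means half-maximal inhibitory concentration below a set limit; inactive means the rest.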",
  "data": [
    {"compound": "O=C(Nc1ccc(Cl)cc1)OCc1cn(-c2ccccc2)nn1", "values": [
      {"measurement": "IC50", "result": "> 200 µM (inactive)"}
    ]},
    {"compound": "O=C(Cn1cnc2scc(-c3ccccc3)c2c1=O)NCc1ccco1", "values": [
      {"measurement": "IC50", "result": "> 200 µM (inactive)"}
    ]},
    {"compound": "Cc1c(Cc2ccccc2)c(=O)oc2c(C)c(OCC(=O)N[C@@H](Cc3ccccc3)C(=O)O)ccc12", "values": [
      {"measurement": "IC50", "result": "> 200 µM (inactive)"}
    ]},
    {"compound": "CC[n+]1c(/C=C/N(C)c2ccccc2)sc2ccc(Cl)cc21", "values": [
      {"measurement": "IC50", "result": "> 200 µM (inactive)"}
    ]},
    {"compound": "Cc1ccc(S(=O)(=O)N2CCC(=O)N(C(COCc3cccc(C)c3)Cc3ccccc3)CC2)cc1", "note": "(stereo not given)", "values": [
      {"measurement": "IC50", "result": "> 200 µM (inactive)"}
    ]},
    {"compound": "CCN(CC)CCOC(=O)c1ccc(N/C=C(/C#N)c2nc(-c3cc4ccccc4oc3=O)cs2)cc1", "values": [
      {"measurement": "IC50", "result": "> 200 µM (inactive)"}
    ]},
    {"compound": "CN1/C(=C\\C=C\\C2=[N+](C)c3ccc4ccccc4c3C2(C)C)C(C)(C)c2ccccc21", "values": [
      {"measurement": "IC50", "result": "> 200 µM (inactive)"}
    ]},
    {"compound": "CCNc1ccc(C(=O)O)cc1N", "values": [
      {"measurement": "IC50", "result": "inactive"}
    ]},
    {"compound": "N#Cc1c(NC(=O)c2ccc(Br)o2)n(-c2ccccc2)c2nc3ccccc3nc12", "values": [
      {"measurement": "IC50", "result": "> 200 µM (inactive)"}
    ]},
    {"compound": "COCCOC(=O)c1sc(=S)n(CCOC)c1N", "values": [
      {"measurement": "IC50", "result": 15.3, "unit": "µM"}
    ]},
    {"compound": "Cc1coc2c(C)c3oc(=O)c(CCC(=O)N[C@@H](C)C(=O)N[C@@H](Cc4ccccc4)C(=O)O)c(C)c3cc12", "values": [
      {"measurement": "IC50", "result": "> 200 µM (inactive)"}
    ]},
    {"compound": "O=C(Nc1ccc(Oc2ccsc2C(=O)O)cc1)c1ccccc1F", "values": [
      {"measurement": "IC50", "result": "> 200 µM (inactive)"}
    ]},
    {"compound": "O=C(Nc1cc([N+](=O)[O-])ccc1N1CCOCC1)c1cccs1", "values": [
      {"measurement": "IC50", "result": "> 200 µM (inactive)"}
    ]},
    {"compound": "Cc1cc(C)n(-c2ccc(Cl)c(C(=O)Nc3cc(C(F)(F)F)ccc3Cl)n2)n1", "values": [
      {"measurement": "IC50", "result": "> 200 µM (inactive)"}
    ]},
    {"compound": "Cc1c(C(=O)O)sc2nc(CSc3ncc(C(F)(F)F)cc3Cl)[nH]c(=O)c12", "values": [
      {"measurement": "IC50", "result": "> 200 µM (inactive)"}
    ]},
    {"compound": "CCOc1cc(/C=C(\\C#N)C(=O)Nc2ccccc2C(=O)O)ccc1OC(=O)c1ccc(C)cc1", "values": [
      {"measurement": "IC50", "result": "> 200 µM (inactive)"}
    ]},
    {"compound": "Oc1ccc(N=Cc2ccc(OCc3ccccc3)cc2)cc1", "values": [
      {"measurement": "IC50", "result": "> 200 µM (inactive)"}
    ]},
    {"compound": "O=C(Nc1ccc(Br)cc1)c1ccc(N2C(=O)C3CC=CCC3C2=O)cc1", "note": "(stereo not given)", "values": [
      {"measurement": "IC50", "result": "> 200 µM (inactive)"}
    ]},
    {"compound": "O=C(O)c1ccc(/C=N/NC(=O)c2ccc(CN3c4cccc5cccc(c45)S3(=O)=O)cc2)cc1", "values": [
      {"measurement": "IC50", "result": "> 200 µM (inactive)"}
    ]},
    {"compound": "CN(C)CCOC(=O)CCc1ccccc1", "values": [
      {"measurement": "IC50", "result": "> 200 µM (inactive)"}
    ]},
    {"compound": "C=CCn1c(NS(=O)(=O)c2ccccc2)c(S(=O)(=O)c2ccc(C)cc2)c2nc3ccccc3nc21", "values": [
      {"measurement": "IC50", "result": "> 200 µM (inactive)"}
    ]},
    {"compound": "CC1(C)OC(C)(C)/C(=C/Nc2ccc(O)cc2)C1=O", "values": [
      {"measurement": "IC50", "result": "> 200 µM (inactive)"}
    ]},
    {"compound": "COC(=O)c1cccc(Cn2c(Cl)c(/C=N/NC(=O)c3ccccc3Cl)sc2=O)c1", "values": [
      {"measurement": "IC50", "result": "> 200 µM (inactive)"}
    ]},
    {"compound": "O=C(NCc1ccc(Cl)cc1)c1cc(-c2cccs2)on1", "values": [
      {"measurement": "IC50", "result": "> 200 µM (inactive)"}
    ]},
    {"compound": "CN(C)c1cccc2c(C=C(C#N)C#N)ccc(N(C)C)c12", "values": [
      {"measurement": "IC50", "result": "> 200 µM (inactive)"}
    ]},
    {"compound": "COCCCn1c(N)c(C(=O)NCc2ccco2)c2nc3ccccc3nc21", "values": [
      {"measurement": "IC50", "result": "> 200 µM (inactive)"}
    ]},
    {"compound": "CCCCNc1c2c3c(cccc3n(C)c1=O)C(=O)c1ccccc1-2", "values": [
      {"measurement": "IC50", "result": "> 200 µM (inactive)"}
    ]},
    {"compound": "CCOC(=O)C1(C)C=C(Nc2ccc(O)cc2)C(=O)N1c1ccc(O)cc1", "note": "(stereo not given)", "values": [
      {"measurement": "IC50", "result": "> 200 µM (inactive)"}
    ]},
    {"compound": "Cc1cc(C)n2ncc(C(=O)Nc3ccc4c(c3)OCO4)c2n1", "values": [
      {"measurement": "IC50", "result": "> 200 µM (inactive)"}
    ]},
    {"compound": "CC(C)(C)c1cc(-c2csc(Nc3ccccc3)[n+]2Cc2ccc(C(=O)O)cc2)cc(C(C)(C)C)c1O", "values": [
      {"measurement": "IC50", "result": "> 200 µM (inactive)"}
    ]},
    {"compound": "O=c1[nH]n(-c2ccc([N+](=O)[O-])cc2)c(=O)c2ccccc12", "values": [
      {"measurement": "IC50", "result": "> 200 µM (inactive)"}
    ]},
    {"compound": "S=c1[nH]nc(Cc2cccc3ccccc23)n1-c1ccccc1", "values": [
      {"measurement": "IC50", "result": "> 200 µM (inactive)"}
    ]},
    {"compound": "CC12CCC(C(=O)NCc3ccc(Cl)cc3)(OC1=O)C2(C)C", "note": "(stereo not given)", "values": [
      {"measurement": "IC50", "result": "> 200 µM (inactive)"}
    ]},
    {"compound": "Cc1ccccc1NC(=O)CN1C(=O)N/C(=C\\c2ccccc2OCc2ccc(C(=O)O)cc2)C1=O", "values": [
      {"measurement": "IC50", "result": "> 200 µM (inactive)"}
    ]},
    {"compound": "Cc1cc(C)c(C#N)c(Nc2ccccc2C)n1", "values": [
      {"measurement": "IC50", "result": "> 200 µM (inactive)"}
    ]},
    {"compound": "COc1cc(CNc2ccc(O)cc2)cc(Br)c1OCc1ccccc1F", "values": [
      {"measurement": "IC50", "result": "> 200 µM (inactive)"}
    ]},
    {"compound": "CCN(CC)c1ccc(/C=c2\\sc3nnc(-c4ccccc4Cl)n3c2=O)cc1", "values": [
      {"measurement": "IC50", "result": "> 200 µM (inactive)"}
    ]},
    {"compound": "CCCCNc1nnc(Cc2ccc(Cl)cc2)c(=O)[nH]1", "values": [
      {"measurement": "IC50", "result": "> 200 µM (inactive)"}
    ]},
    {"compound": "O=C(O)c1cc(O)c2c(c1)C(=O)c1cccc(O)c1C2=O", "values": [
      {"measurement": "IC50", "result": "inactive"}
    ]},
    {"compound": "Nc1ccc(S(=O)(=O)Nc2ccc(S(N)(=O)=O)cc2)cc1", "values": [
      {"measurement": "IC50", "result": "> 200 µM (inactive)"}
    ]},
    {"compound": "Cc1cc2cc(CNC(=O)c3ccc(S(=O)(=O)N4CCCCC4)cc3)ccc2n1C", "values": [
      {"measurement": "IC50", "result": "inactive"}
    ]},
    {"compound": "CC1CCN(S(=O)(=O)c2ccc3c(c2)c(=O)c(C(=O)NCc2ccccc2Cl)cn3C)CC1", "values": [
      {"measurement": "IC50", "result": "> 200 µM (inactive)"}
    ]},
    {"compound": "Cc1ccc2c(c1)N(CC(=O)NCCc1ccc(Cl)cc1)C(=O)c1cccnc1O2", "values": [
      {"measurement": "IC50", "result": "> 200 µM (inactive)"}
    ]},
    {"compound": "O=C(Nc1ccccc1N1CCCCC1)c1ccc(-c2cccc(Cl)c2)o1", "values": [
      {"measurement": "IC50", "result": "> 200 µM (inactive)"}
    ]},
    {"compound": "Cc1ccc(NC(=O)CCC(=O)NNC(=O)c2ccccc2[N+](=O)[O-])c(C)c1", "values": [
      {"measurement": "IC50", "result": "> 200 µM (inactive)"}
    ]},
    {"compound": "COC(=O)C1CC(=O)N(c2ccc(OCc3ccccc3Cl)cc2)C1", "note": "(stereo not given)", "values": [
      {"measurement": "IC50", "result": "> 200 µM (inactive)"}
    ]},
    {"compound": "CC(NC(=O)Nc1ccc(O)cc1)(C(F)(F)F)C(F)(F)F", "values": [
      {"measurement": "IC50", "result": "> 200 µM (inactive)"}
    ]},
    {"compound": "CC1CCN(C(=O)C2CCC(C)(C(=O)O)C2(C)C)CC1", "note": "(stereo not given)", "values": [
      {"measurement": "IC50", "result": "> 200 µM (inactive)"}
    ]},
    {"compound": "COc1ccc(CCNC(=O)CCC(=O)N2CCOc3ccc(C)cc32)cc1OC", "values": [
      {"measurement": "IC50", "result": "> 200 µM (inactive)"}
    ]},
    {"compound": "O=c1ccc2c(-c3ccccc3)c3ccc(O)cc3oc-2c1", "values": [
      {"measurement": "IC50", "result": "> 200 µM (inactive)"}
    ]},
    {"compound": "Cc1ccc(S(=O)(=O)NN=C2C3CC4CC(C3)CC2C4)cc1[N+](=O)[O-]", "values": [
      {"measurement": "IC50", "result": "> 200 µM (inactive)"}
    ]},
    {"compound": "Nc1c(C(=O)NCc2ccco2)c2nc3ccccc3nc2n1Cc1ccccc1", "values": [
      {"measurement": "IC50", "result": "> 200 µM (inactive)"}
    ]},
    {"compound": "COC(=O)c1ccc2c(c1)C(C)(C)C(/C=C/c1ccccc1O)=[N+]2C", "values": [
      {"measurement": "IC50", "result": "> 200 µM (inactive)"}
    ]},
    {"compound": "O=C(Nc1ccc(S(=O)(=O)N2CCOCC2)cc1)c1ccc(=O)[nH]c1", "values": [
      {"measurement": "IC50", "result": "> 200 µM (inactive)"}
    ]},
    {"compound": "CC1=CC(C)(C)N2C(=O)C(=Nc3ccc(O)cc3)c3cccc1c32", "values": [
      {"measurement": "IC50", "result": "> 200 µM (inactive)"}
    ]}
  ]
}
